Measured values as given in BigSolDB 2.1.

N[C@H](Cc1c[nH]c2ccccc12)C(=O)O
solubility (mole fraction)
Conditions	in DMF	in ethanol	in isopropanol	in methanol	in water
283.15 K	0.00714	9.34e-05	1.29e-05	0.000179	0.00146
288.15 K	0.00749	0.000112	1.57e-05	0.000217	0.00159
293.15 K	0.00793	0.000135	1.9e-05	0.000261	0.00175
298.15 K	0.00834	0.000165	2.26e-05	0.000303	0.00192
303.15 K	0.00872	0.000202	2.64e-05	0.000358	0.00209
308.15 K	0.00912	0.000243	3.09e-05	0.000421	0.00227
313.15 K	0.00954	0.00029	3.62e-05	0.000489	0.00245
318.15 K	0.01	0.000348	4.16e-05	0.000575	0.00267
323.15 K	0.0104	0.00041	4.78e-05	0.000671	0.00288
328.15 K	0.0108	0.000484	5.44e-05	0.000779	0.00309
333.15 K	0.0113	0.000567	6.22e-05	0.000894	0.00332
